We go through 1 compound from paper PMC10759609, “A novel PDPN antagonist peptide CY12-RP2 inhibits melanoma growth via Wnt/β-catenin and modulates the immune cells” (Journal of Experimental & Clinical Cancer Research : CR, 2024).

In one test the test system is PDPN in A375 cells. Nature of the test: Immunofluorescence binding/co-localization with PDPN, A375. Particulars: 5 μM, 10 h, 37 ℃. Format: cell-based. Here is the method:
Immunofluorescence analysis was used for antigen localization and quantification. For PDPN immunofluorescence staining, melanoma cells (A375, A875) were seeded in coverslips, cultured for 24 h, and fixed using 4% paraformaldehyde for 15 min at room temperature (RT). The cells were then permeabilized with 0.2% Triton X-100 in PBS for 10 min. Cells were blocked using 1% bovine serum albumin (BSA) in PBS for 30 min at RT, and incubated with the primary antibody overnight at 4 ℃. Afterwards, cells were washed three times with PBS containing 0.01% Triton X-100 for 5 min, and incubated with Alexa Fluor 568–conjugated secondary antibodies at RT for 1 h. Lastly, the nuclei were dyed with 4’,6-diamidino-2-phenylindole (DAPI) for 5 min at RT, and the slides were imaged using a NIKON laser scanning confocal microscope. To further verify the specificity binding ability of CY12-RP2 with PDPN, immunofluorescence was detected for analysis in melanoma cells. Briefly, A375 or A875 cells were incubated with CY12-RP2 at a concentration of 5 μM for 10 h at 37 ℃, and then washed with DMEM to remove the unbound peptide. The anti-PDPN primary antibody was then incubated for 4 h at RT. Further experimental procedures were performed as described above. […]

The test system of another test is Ki67. Nature of the test: Ki67 fluorescence staining of xenograft tumors. In kind it is in vivo, BALB/c nude mice. The conditions noted are these: A375 xenograft tumors. Here is the method: (§1) Fig. S4: The inhibition of cells metastasis and invasion by CY12-RP2 can be […]
(§2) (A, B) The inhibition of CY12-RP2 on the migration capacity of melanoma cell lines was reversed by SKL2001 (A). Statistical analysis was performed to determine the migrated distance (B). The power field scale bar, 100 μm. (C, D) Effect of CY12-RP2 on the invasive ability of melanoma cell lines were reversed by SKL2001 (C).
(§3) Statistical analysis was performed to count the invaded cells (D). The power field scale bar, 100 μm. (E) Western blot assay was also performed to detect the proteins related to EMT and Wnt/β-catenin signaling pathway, including N-cadherin, Vimentin, snail, Dvl2, Phospho-β-catenin-S675, β-catenin, Phospho-GSK3β-Ser9 and GSK3β by CY12-RP2 with or without SKL2001 (50 μM). Data are presented as mean ± SD. *p < […]
(§4) Fig. S5: Effects and toxicity of CY12-RP2 in vivo
(§5) (A) TUNEL analysis of apoptosis was conducted on orthotopic xenografts tumor sections using fluorescence staining. The power field scale bar, 100 μm. (B) Fluorescence staining of Ki67 was carried out on orthotopic xenograft tumor sections.
(§6) The power field scale bar, 100 μm. (C) Serum His-CY12-RP2 levels of the orthotopic xenografts mice treated by various dosage of CY12-RP2 were measured by His-ELISA kit. […]
(§7) kit. (E) Serum ALT, AST, TG, and γ-GT levels of the orthotopic xenografts model were measured by ELISA. […]

The target in test [1] is T1, PDPN recombinant proteins (Homo sapiens, UniProt Q86YL7).
T1 construct: PDPN recombinant proteins were coated on the CM7 sensor chip
T1 sequence (Q86YL7 23-162): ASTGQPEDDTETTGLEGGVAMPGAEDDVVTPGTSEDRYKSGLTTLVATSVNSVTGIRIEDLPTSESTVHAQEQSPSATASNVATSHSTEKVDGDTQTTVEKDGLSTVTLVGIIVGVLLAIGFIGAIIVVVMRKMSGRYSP
Nature of the test: SPR assay, binding to immobilized PDPN. Particulars: CM7 chip, 100 μM to 0.00128 μM. On the procedure: SPR assay was conducted on a GE Biacore 3000 (Cytiva, USA) using a CM7 sensorchip for protein immobilization. All experimental steps were performed at a temperature of 24 °C and samples were kept at 4 °C. CY12-RP1 and CY12-RP2 peptides were diluted in the running buffer ([…] saline buffer, HBS-EP) at the final concentrations ranging from 100 μM to 0.00128 μM. The peptides were injected at a rate of 30 μL/min through immobilized PDPN for 240 s for association. All regenerations were introduced at a flow rate of 30 µL/min. SPR assay was performed in triplicate and the results were analyzed using Biacore 3000 software.
To further investigate the potential anti-tumor effect of PDPN antagonist on melanoma, we used a Ph.D.TM-12 Phage Display Peptide Library to screen for a PDPN antagonist peptide. After four rounds of biopanning under progressively stringent selection conditions in vitro, seven clones with individual amino acid sequences were obtained (Fig. 3A). To assess the anti-tumor effects of these seven peptides on melanoma cells, the proliferation of A375 and A875 cell lines after treating with various concentration peptides were examined by CCK8 assay. […] We then performed immunofluorescence, SPR assay, and flow cytometry to identify the binding specificity of CY12-RP1 and CY12-RP2 with PDPN in melanoma cells. […]
On the technique in general: In SPR one partner is held on a chip, and binding of the other changes the refractive index at the surface.

In test [2] the test system is A375 xenograft tumor cells. Nature of the test: TUNEL immunofluorescence of xenograft tumors. In kind it is in vivo, BALB/c nude mice. Here is the method:
as §1, §2, §3, §4, §5, §6, §7

Peptide text beside a SMILES is read from it.

Take `CC(C)C[C@H](NC(=O)[C@H](Cc1ccc(O)cc1)NC(=O)[C@@H](N)[C@@H](C)O)C(=O)N[C@@H](CS)C(=O)N[C@H](C(=O)N[C@@H](C)C(=O)N[C@@H](CS)C(=O)N[C@@H](CC(=O)O)C(=O)N[C@@H](Cc1ccc(O)cc1)C(=O)N[C@H](C(=O)N[C@@H](Cc1c[nH]cn1)C(=O)N[C@@H](Cc1c[nH]cn1)C(=O)O)[C@@H](C)O)[C@@H](C)O` [CY12-RP2] (H-TYLCTACDYTHH-OH; N-terminus and C-terminus assumed): in the test with PDPN in A375 cells, the “fluorescence and co-localization with PDPN” value was “strong fluorescence and co-localization”. In addition, the “level of Ki67” value in the test on Ki67 is given as “significantly decreased”. For the same compound, the “binding to PDPN (in words)” value in test [1] is “bound to PDPN in a dose-dependent manner”. In addition, the “apoptotic tumor cells (TUNEL)” value in test [2] was “more apoptotic tumor cells were detected”.
